These results are taken from ChEMBL document CHEMBL1201862, “PubChem BioAssay data set” (2004).

Common to all, as to experiment: inhibition of tumour cell growth, NCI panel, 48 h
Assay [1] relates to 786-0.
In assay [2] the test system is KM-20L2.
The subject of assay [3] is SNB-78.
In assay [4] the test system is RXF 631.
Assay [5] deals with M19-MEL.
The test system of assay [6] is XF498.
Assay [7] relates to DMS-273.
In assay [8] the test system is HOP-18.
Assay [9] has as its system DLD-1.

Structures are written as SMILES.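 Briefly, cells in 96-well plates were exposed to five compound concentrations for 48 h, and endpoints were estimated by linear interpolation. GI50 marks 50% less growth.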 The source made the active and inactive calls. No stated cut-off is given here; in the data, active = GI50 up to about 1.1 µM and inactive = higher. Some results are limits rather than exact numbers.

Regarding `CCc1nnc2sc(-c3ccc(-c4ccc(Cl)cc4Cl)o3)nn12`, the GI50 in [1] was 32.9 µM (inactive).
Still for that read-out and setting: then `COC1(OC)c2no[n+]([O-])c2CCC1O` (configuration not stated), with > 100 µM (inactive).
As to `N/C(S)=N/N=C/c1cc(CN2CCOCC2)c(N)cn1`, in assay [1], the GI50 is 65.2 µM (inactive).
Still for that read-out and setting: then `CCCCNC(=O)c1cc(S(=O)(=O)n2ccnc2O)c(SC)cc1Cl`, with > 100 µM (inactive).
`Cc1c(N2C(=O)/C(=C/c3ccc(N(CCC#N)CCC#N)cc3)N=C2c2ccccc2)c(=O)n(-c2ccccc2)n1C`: the GI50 in assay [1] was > 100 µM (inactive).
With `CCN(CC)/[N+]([O-])=N/O`, the GI50 in assay [2] was > 100 µM (inactive); in assay [3], > 100 µM (inactive); in assay [4] it was > 100 µM (inactive); in assay [5] it was > 100 µM (inactive); in assay [6] it was 18.9 µM (inactive); in assay [7], > 100 µM (inactive).
Consider `COc1ccc(/C=C2\CCC/C(=C\c3ccc(O)c(CN4CCCCC4)c3)C2=O)cc1`, for which, in assay [1], the GI50 was 4.17 µM (inactive).
Turning to `CN(C)CCOc1cc2c(c3ccccc13)-c1ccccc1C2O` (configuration not stated), the GI50 in [8] was 14.8 µM (inactive); in [2], 15.6 µM (inactive); in assay [3], 15.9 µM (inactive); in assay [9], 15.8 µM (inactive); in [5], 16.6 µM (inactive); in [6], 12.9 µM (inactive). Further, the GI50 in assay [7] is 15 µM (inactive).
Consider `COc1ccc(/N=C\c2ccc(N(CCC#N)S(=O)(=O)c3ccccc3)cc2C)cc1`, for which the GI50 is > 100 µM (inactive) in [8]; 12 µM (inactive) in [2]; 79.1 µM (inactive) in assay [3]; 59.8 µM (inactive) in assay [4]; 41.7 µM (inactive) in assay [5]; > 100 µM (inactive) in [6].
Take `O=C(NNC(=S)Nc1ccccc1)c1nsc2ccccc12`: the GI50 in assay [8] is 10.3 µM (inactive); in assay [2] it was 30.8 µM (inactive); in assay [3], 47.9 µM (inactive); in assay [5], 28.9 µM (inactive); in [7] it was 17.3 µM (inactive).
Turning to `COC(=O)CN(C)P(=O)(N1CC1)N1CC1`, the GI50 in assay [2], in [3], in assay [4], in assay [9] and in [7] was > 100 µM (inactive) in each case.
On to `CC(=O)c1ccccc1NP(=O)(c1ccccc1)c1ccccc1`, for which, in [1], the GI50 is > 100 µM (inactive).
Same read-out and setting: the same measure for `Oc1ccc(Cl)cc1C1=NC(/N=C\c2ccccc2)=NC(c2ccccc2)C1` (configuration not stated): 19.1 µM (inactive).
Consider `O[C@H]1[C@H]2[C@H](O)CCCN2C[C@H]1O` [TRIDOLGOSIR], for which the GI50 in assay [8], in assay [2], in [1], in [3], in assay [9] and in assay [5] was > 100 µM (inactive) each time. Further, the GI50 in assay [6] and in assay [7] was > 100 µM (inactive) each time.
In the case of `C/C=C(/C)C(=O)O[C@H]1[C@H]2[C@@H]([C@@H](OC(C)=O)[C@H](C)C(=O)[C@@]34C[C@@H](C)C(=O)[C@]3(/C=C(\C)[C@H]1OC(C)=O)O4)C2(C)C`, the GI50 in [1] was 2.67 µM (inactive).
Same read-out and setting: then `COc1cccc(C2c3cc4c(cc3OC(NNS(=O)(=O)c3ccc(C)cc3)C2C)OCO4)c1O` (configuration not stated), with 0.537 µM (active).
Regarding `CSC1SCC2C(=O)N(C)C(C(C)C)C(=O)OCC(NC(=O)c3cnc4ccccc4n3)C(=O)NC(C)C(=O)N(C)C1C(=O)N(C)C(C(C)C)C(=O)OCC(NC(=O)c1cnc3ccccc3n1)C(=O)NC(C)C(=O)N2C` (configuration not stated), the GI50 in assay [8], in assay [2], in assay [3], in assay [9] and in assay [7] was 0.0075 µM (active) in each case.
Turning to `COc1cc([C@@H]2c3cc4c(cc3[C@H](O)[C@H]3COC(=O)[C@H]23)OCO4)cc(OC)c1OC` [PODOFILOX], the GI50 is > 100 µM (inactive) in assay [8]; 0.01 µM (active) in assay [3]; 0.0243 µM (active) in assay [9]; 0.0354 µM (active) in assay [6]; 0.01 µM (active) in [7].
